In publication PMC9231011, “Irreversible Antagonists for the Adenosine A2B Receptor” (Molecules, 2022):

Key:
[1] = target: T1, A2BAR (Homo sapiens, UniProt P29275); assay: Competitive radioligand binding vs [3H]PSB-603; design: purchased Perkin Elmer ES-013-M400UA
T1 sequence (P29275 1-332): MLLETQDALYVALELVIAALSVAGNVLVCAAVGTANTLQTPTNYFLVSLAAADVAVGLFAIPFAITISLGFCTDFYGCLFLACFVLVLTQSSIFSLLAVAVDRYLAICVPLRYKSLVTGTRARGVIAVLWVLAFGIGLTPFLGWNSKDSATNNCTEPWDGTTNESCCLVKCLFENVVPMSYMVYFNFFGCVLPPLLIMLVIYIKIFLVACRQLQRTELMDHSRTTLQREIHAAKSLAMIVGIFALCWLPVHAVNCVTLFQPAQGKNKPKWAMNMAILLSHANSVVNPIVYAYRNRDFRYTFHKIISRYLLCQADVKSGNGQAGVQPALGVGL
Description: The potentially irreversible xanthine derivatives were investigated for their binding affinity at human A2BARs and for their selectivity versus the other human AR subtypes, A1, A2A, and A3, by competitive radioligand binding experiments.
The human A2AAR, the mutant human A2BAR (K269^7.32L), and the human A3AR were transiently expressed in FreeStyle^TM CHO-S cells using the transfection reagent polyethylenimine (PEI) at a ratio of 1:3 to DNA according to the manufacturer’s guideline. pcDNA3.1(+) was used as the transfection vector containing the cDNA for either the wt ARs or the K269^7.32L mutant A2BAR that was prepared by site-directed mutagenesis with the following primer: forward […], reverse […]. CHO-S cells were grown in FreeStyle^TM CHO Expression Medium supplemented with 8 mM L-glutamine before use and split to 0.5 mio. cells per mL the day before transfection. Twenty-four hours after transfection, cells were spun down by centrifugation for 15 min at 500× g. Cells were disrupted by resuspension in 5 mM tris(hydroxymethyl)aminomethane buffer (Tris, pH 7.4) containing 2 mM ethyl-ene¬diaminetetraacetic acid (EDTA) with subsequent homogenization using an Ultra-Turrax homogenizer. The cell suspension was centrifuged for 10 min at 1000× g and the obtained supernatant was pelleted by centrifugation for 60 min at 48,000× g. The supernatant was discarded and the pellet washed with 50 mM Tris (pH 7.4). After centrifugation for at least 30 min at 48,000× g, the pellet was resuspended in 50 mM Tris (pH 7.4), aliquoted and stored at −80 °C for further use. All centrifugation steps were carried out at 4 °C. Membrane preparations of the human wt A1AR and the human wt A2BAR were purchased from Perkin Elmer (Perkin-Elmer, Waltham, MA, USA) (catalogue numbers ES-010-M400UA and ES-013-M400UA).
Binding experiments were performed using 50 mM Tris buffer (pH 7.4) in a total volume of 400 µL for the A1AR, A2AAR, A3AR, and 1000 µL for the A2BAR. Initial screening was carried out in two independent experiments at 1 µM. Competition of compounds versus [^3H]CCPA (A1AR, final concentration 1 nM), [^3H]MSX-2 (A2AAR, final concentration 1 nM), [^3H]PSB-603 (A2BAR, final concentration 0.3 nM) and [^3H]PSB-11 (A3AR, final concentration 1 nM) was investigated. An amount of 7.5–25 µg of total protein per well was employed, incubated with 2 U of adenosine deaminase per mL beforehand. Non-specific binding was determined in the presence of 10 µM of 2-chloroadenosine, 10 µM of CGS 15943, 10 µM of 8-cyclopently-1,3-dipropylxanthine or 100 µM of (R)-N^6-phenylisopropyadenosine for A1-, A2A-, A2B- and A3ARs, respectively. Competition association experiments (at 25 °C) were performed in the same way but the protein was added delayed at indicated time points and the cell membranes were harvested after 1 min. Incubation was terminated by rapid filtration through GF/B glass fiber filters (Whatman) using a 48-well harvester (Brandel) after 90 (A1AR), 30 (A2AAR), 75 (A2BAR), and 45 min (A3AR) of incubation, respectively. Filters were pre-incubated with 0.3% (w/v) of PEI for 30–60 min in case of the A2AAR assay. Filters were rinsed three times with ice-cold 50 mM Tris, pH 7.4 (supplemented with 0.1% (w/v) bovine serum albumin for the A2BAR) and transferred into scintillation vials. Filters were then incubated with 2.5 mL of scintillation cocktail (ProSafe FC plus) for at least 6 h. Subsequently, radioactivity was determined using a liquid scintillation counter (Tricarb 2810TR, Perkin Elmer).

SMILES	melting point [°C]	Ki [1] [nM]	A2B selectivity versus the A1AR ([1]; from Ki values) [fold]	A2B selectivity versus the other AR subtypes ([1]; from Ki values)	Potency difference at A2BAR versus PSB-1115 ([1]; more potent than PSB-1115) [fold]
CCCn1c(=O)[nH]c2nc(-c3ccc(S(=O)(=O)F)cc3)[nH]c2c1=O [6a, 4-(2,6-Dioxo-1-propyl-2,3,6,7-tetrahydro-1H-purin-8-yl)benzenesulfonyl fluoride]	> 300	10.6 ± 0.9	38	> 38 fold	14
CCCn1c(=O)c2[nH]c(-c3ccc(S(=O)(=O)F)cc3)nc2n(C)c1=O [6b, 4-(3-Methyl-2,6-dioxo-1-propyl-2,3,6,7-tetrahydro-1H-purin-8-yl)benzenesulfonyl fluoride]	> 300	15.9 ± 1		> 18 fold	
CCCn1c(=O)c2[nH]c(-c3ccc(S(=O)(=O)F)cc3)nc2n(C2CC2)c1=O [6c, 4-(3-Cyclopropyl-2,6-dioxo-1-propyl-2,3,6,7-tetrahydro-1H-purin-8-yl)benzenesulfonyl fluoride]	> 300	26 ± 2.8			
CCCn1c(=O)[nH]c2nc(-c3ccc(S(=O)(=O)N4CCC(NC(=O)c5ccc(S(=O)(=O)F)cc5)CC4)cc3)[nH]c2c1=O [compound 12, 4-((1-((4-(2,6-Dioxo-1-propyl-2,3,6,7-tetrahydro-1H-purin-8-yl)phenyl)sulfonyl)piperidin-4-yl)carbamoyl)benzenesulfonyl fluoride]		7.37 ± 0.83		more than two orders of magnitude	
